From patent EP0148431A1, “Benzimidazoles, their preparation, and medicaments containing these compounds” (Dr. Karl Thomae GmbH, priority 1983, dated 1985)
Where two headings read alike, the source gives them in different places.

Test system: narkotisierten Katze
Conditions: anaesthetised cats (pentobarbital sodium 40 mg/kg i.p.), mean of at least 3 cats
Description: Beispielsweise wurden die Verbindungen • A = 2-(2-Methoxy-4-methylsulfonyl-phenyl)-5-cyano-benzimidazol und • B = 2-(2-Methoxy-4-propargyloxy-phenyl)-5-cyano-benzimidazol auf ihre biologischen Eigenschaften wie folgt untersucht: • Bestimmung der Blutdruckwirkung und der positiv inotropen Wirkung an der narkotisierten Katze
Die Untersuchungen wurden an Katzen durchgeführt, die mit Pentobarbital-Natrium (40 mg/kg i.p.) narkotisiert waren. Die Tiere atmeten spontan. Der arterielle Blutdruck wurde in der Aorta abdominalis mit einem Statham-Druckwandler (P 23 Dc) gemessen. Für die Erfassung der positiv inotropen Wirkung wurde mit einem Kathetertipmanometer (Millar PC-350 A) der Druck in der linken Herzkammer gemessen. Daraus wurde der Kontraktilitätsparameter d^p/dtmax mittels eines Analogdifferenzierers gewonnen. Die zu untersuchenden Substanzen wurden in eine Vena femoralis injiziert. Als Lösungsmittel diente Polydiol 200. Jede Substanz wurde an mindestens 3 Katzen geprüft.

## C#CCOc1ccc(-c2nc3ccc(C#N)cc3[nH]2)c(OC)c1 [B, 2-(2-Methoxy-4-propargyloxy-phenyl)-5-cyano-benzimidazol]
0,2 mg/kg i.v.
  Zunahme von dp/dtmax in %: 33%
0,6 mg/kg i.v.
  Zunahme von dp/dtmax in %: 48%
2,0 mg/kg i.v.
  Zunahme von dp/dtmax in %: 85%

## COc1cc(S(C)(=O)=O)ccc1-c1nc2ccc(C#N)cc2[nH]1 [A, 2-(2-Methoxy-4-methylsulfonyl-phenyl)-5-cyano-benzimidazol]
0,2 mg/kg i.v.
  Zunahme von dp/dtmax in %: 51%
0,6 mg/kg i.v.
  Zunahme von dp/dtmax in %: 96%
2,0 mg/kg i.v.
  Zunahme von dp/dtmax in %: 79%
